Assay results taken from PMC6404347, “CHCHD4 confers metabolic vulnerabilities to tumour cells through its control of the mitochondrial respiratory chain” (Cancer & Metabolism, 2019).

Target: T1, mitochondrial respiratory chain complex I (CI) (Bos taurus, UniProt P03887+P17694+P42026)
T1 construct: gene NDUFS2; whole CI enzyme immunocaptured from purified bovine heart mitochondria
Test: MitoTox Complex I OXPHOS Activity Microplate Assay (immunocaptured enzyme), dose-response
Assay type: biochemical

T1 sequence (P17694 34-463): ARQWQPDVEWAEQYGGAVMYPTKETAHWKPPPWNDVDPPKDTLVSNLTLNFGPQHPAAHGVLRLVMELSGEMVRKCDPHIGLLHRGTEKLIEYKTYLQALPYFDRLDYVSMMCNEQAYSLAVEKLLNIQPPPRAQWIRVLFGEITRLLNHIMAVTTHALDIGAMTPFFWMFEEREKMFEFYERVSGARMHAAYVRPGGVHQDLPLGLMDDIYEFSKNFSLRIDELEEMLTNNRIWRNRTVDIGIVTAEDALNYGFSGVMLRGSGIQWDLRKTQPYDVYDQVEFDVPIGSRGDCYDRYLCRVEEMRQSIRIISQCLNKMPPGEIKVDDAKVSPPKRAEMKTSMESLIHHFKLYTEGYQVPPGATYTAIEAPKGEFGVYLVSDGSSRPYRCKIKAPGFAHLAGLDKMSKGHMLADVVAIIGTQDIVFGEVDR
T1 sequence (P42026 38-216): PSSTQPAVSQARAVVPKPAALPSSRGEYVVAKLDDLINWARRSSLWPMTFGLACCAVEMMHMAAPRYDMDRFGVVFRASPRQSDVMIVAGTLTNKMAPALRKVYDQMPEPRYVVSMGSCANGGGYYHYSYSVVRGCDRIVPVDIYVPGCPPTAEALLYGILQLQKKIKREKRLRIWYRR
T1 sequence (P03887 whole entry): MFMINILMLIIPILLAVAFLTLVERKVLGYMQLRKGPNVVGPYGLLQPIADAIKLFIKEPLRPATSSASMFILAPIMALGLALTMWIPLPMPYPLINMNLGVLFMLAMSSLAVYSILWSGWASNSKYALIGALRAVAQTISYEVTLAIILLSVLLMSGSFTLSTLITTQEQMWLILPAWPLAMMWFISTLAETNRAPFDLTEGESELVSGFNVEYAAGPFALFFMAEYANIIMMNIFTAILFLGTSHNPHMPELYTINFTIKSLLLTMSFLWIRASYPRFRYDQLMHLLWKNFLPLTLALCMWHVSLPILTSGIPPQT

Work on `Cc1cc(-c2nc(-c3ccc(OC(F)(F)F)cc3)no2)nn1Cc1ccnc(N2CCN(C3CC3)CC2)c1` [BAY 87-2243] yielded an IC50 of about 500 nM.
